{
  "source": "paper PMC10046961",
  "about": "“High-Throughput Screening Assay for Detecting Drug-Induced Changes in Synchronized Neuronal Oscillations and Potential Seizure Risk Based on Ca^2+ Fluorescence Measurements in Human Induced Pluripotent Stem Cell (hiPSC)-Derived Neuronal 2D and 3D Cultures” (Cells, 2023)",
  "key": {"[1]": {"system": "hiPSC-derived neurons co-cultured with human primary astrocytes in 2D", "assay": "Ca2+ transient oscillation assay (FDSS), 2D co-culture", "type": "cell-based", "details": "for activation at 3.7 µM / activation at 11.11 µM / activation at 33.33 µM / activation at 100 µM: Homo sapiens, 1 h, 60 min", "in_short": "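Cultures were 10,000 CW50065 hiPSC excitatory neurons plus 2500 primary human astrocytes per well. Recordings used Cal-520 dye in HBSS/HEPES/glucose at 37 °C, with a 470/540 nm read at 2 Hz. Oscillations were stabilized with 0.04% DMSO, read for 20 min, then read again 60 min after compound addition (final DMSO 0.1%).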"}, "[2]": {"system": "hiPSC-derived neurons co-cultured with human primary astrocytes in 3D", "assay": "Ca2+ transient oscillation assay (FDSS), 3D spheroids", "type": "cell-based", "details": "60 min", "in_short": "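Fura-2 fluorescence was read twice for 20 min each: a baseline 10 min after 0.04% DMSO, and again 60 min after compound addition at nominal final concentration. The 3D co-cultures (1:1 hiPSC neurons from a donor and human astrocytes, 8000 each) matured 5 weeks in BrainPhys medium after a 1-week differentiation.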"}, "[3]": {"details": "ref PharmaPendium, cited from earlier work"}, "[4]": {"details": "read-out: Area under the curve - 2D Mean"}, "[5]": {"details": "read-out: Peak amplitude - 2D Mean"}, "[6]": {"details": "read-out: Peak-to-peak interval - 2D Mean"}},
  "note": "Read-outs that look alike come from different tables or passages of the source.",
  "data": [
    {"smiles": "O=C1NC(=O)C(c2ccccc2)(c2ccccc2)N1", "note": "[Phenytoin]", "values": [
      {"measurement": "effect on peak number / Ca2+ neuronal oscillations, in words", "setting": "[1]; 2D format", "value": "significantly reduced peak number"},
      {"measurement": "activation at 3.7 µM", "setting": "[1]; [4]", "value": 33.2, "unit": "%"},
      {"measurement": "activation at 3.7 µM", "setting": "[1]; read-out: Peak Number—2D Mean", "value": -33.5, "unit": "%"},
      {"measurement": "activation at 3.7 µM", "setting": "[1]; [5]", "value": 7.3, "unit": "%"},
      {"measurement": "activation at 3.7 µM", "setting": "[1]; read-out: Peak width - 2D Mean", "value": 27.2, "unit": "%"},
      {"measurement": "activation at 3.7 µM", "setting": "[1]; [6]", "value": 46.3, "unit": "%"},
      {"measurement": "activation at 11.11 µM", "setting": "[1]; [4]", "value": 27.5, "unit": "%"},
      {"measurement": "activation at 11.11 µM", "setting": "[1]; read-out: Peak Number—2D Mean", "value": -15.2, "unit": "%"},
      {"measurement": "activation at 11.11 µM", "setting": "[1]; [5]", "value": -0.2, "unit": "%"},
      {"measurement": "activation at 11.11 µM", "setting": "[1]; read-out: Peak width - 2D Mean", "value": 31.5, "unit": "%"},
      {"measurement": "activation at 11.11 µM", "setting": "[1]; [6]", "value": 22.2, "unit": "%"},
      {"measurement": "activation at 33.33 µM", "setting": "[1]; [4]", "value": 15.8, "unit": "%"},
      {"measurement": "activation at 33.33 µM", "setting": "[1]; read-out: Peak Number—2D Mean", "value": -51.2, "unit": "%"},
      {"measurement": "activation at 33.33 µM", "setting": "[1]; [5]", "value": -3, "unit": "%"},
      {"measurement": "activation at 33.33 µM", "setting": "[1]; read-out: Peak width - 2D Mean", "value": 17, "unit": "%"},
      {"measurement": "activation at 33.33 µM", "setting": "[1]; [6]", "value": 89, "unit": "%"},
      {"measurement": "activation at 100 µM", "setting": "[1]; [4]", "value": 33.3, "unit": "%"},
      {"measurement": "activation at 100 µM", "setting": "[1]; read-out: Peak Number—2D Mean", "value": -27.5, "unit": "%"},
      {"measurement": "activation at 100 µM", "setting": "[1]; [5]", "value": 0.2, "unit": "%"},
      {"measurement": "activation at 100 µM", "setting": "[1]; read-out: Peak width - 2D Mean", "value": 34.7, "unit": "%"},
      {"measurement": "activation at 100 µM", "setting": "[1]; [6]", "value": 44.5, "unit": "%"},
      {"measurement": "Area under the curve - 3D Mean", "setting": "[2]; 3.7 µM", "value": 132.1, "unit": "% change from baseline"},
      {"measurement": "Peak Number—3D Mean", "setting": "[2]; 3.7 µM", "value": 1.4, "unit": "% change from baseline"},
      {"measurement": "Peak amplitude - 3D Mean", "setting": "[2]; 3.7 µM", "value": 111.5, "unit": "% change from baseline"},
      {"measurement": "Peak width - 3D Mean", "setting": "[2]; 3.7 µM", "value": 7.4, "unit": "% change from baseline"},
      {"measurement": "Peak-to-peak interval - 3D Mean", "setting": "[2]; 3.7 µM", "value": 2.9, "unit": "% change from baseline"},
      {"measurement": "Area under the curve - 3D Mean", "setting": "[2]; 11.11 µM", "value": 177.0, "unit": "% change from baseline"},
      {"measurement": "Peak Number—3D Mean", "setting": "[2]; 11.11 µM", "value": "−11.8", "unit": "% change from baseline"},
      {"measurement": "Peak amplitude - 3D Mean", "setting": "[2]; 11.11 µM", "value": 110.4, "unit": "% change from baseline"},
      {"measurement": "Peak width - 3D Mean", "setting": "[2]; 11.11 µM", "value": 29.4, "unit": "% change from baseline"},
      {"measurement": "Peak-to-peak interval - 3D Mean", "setting": "[2]; 11.11 µM", "value": 8.2, "unit": "% change from baseline"},
      {"measurement": "Area under the curve - 3D Mean", "setting": "[2]; 33.33 µM", "value": 199.3, "unit": "% change from baseline"},
      {"measurement": "Peak Number—3D Mean", "setting": "[2]; 33.33 µM", "value": "−14.6", "unit": "% change from baseline"},
      {"measurement": "Peak amplitude - 3D Mean", "setting": "[2]; 33.33 µM", "value": 91.2, "unit": "% change from baseline"},
      {"measurement": "Peak width - 3D Mean", "setting": "[2]; 33.33 µM", "value": 47.9, "unit": "% change from baseline"},
      {"measurement": "Peak-to-peak interval - 3D Mean", "setting": "[2]; 33.33 µM", "value": 17.7, "unit": "% change from baseline"},
      {"measurement": "Area under the curve - 3D Mean", "setting": "[2]; 100 µM", "value": 198.2, "unit": "% change from baseline"},
      {"measurement": "Peak Number—3D Mean", "setting": "[2]; 100 µM", "value": "−9.9", "unit": "% change from baseline"},
      {"measurement": "Peak amplitude - 3D Mean", "setting": "[2]; 100 µM", "value": 88.4, "unit": "% change from baseline"},
      {"measurement": "Peak width - 3D Mean", "setting": "[2]; 100 µM", "value": 50.5, "unit": "% change from baseline"},
      {"measurement": "Peak-to-peak interval - 3D Mean", "setting": "[2]; 100 µM", "value": 6.6, "unit": "% change from baseline"},
      {"measurement": "Free Cmax", "setting": "[3]; Table 1, peak plasma concentration in men, free therapeutic Cmax", "value": "4 to 15", "unit": "µM"},
      {"measurement": "Free Cmax", "setting": "[3]; Table 2, highest plasma concentration in humans after the therapeutic dose", "value": "4 to 15", "unit": "µM"}
    ]}
  ]
}
